Laboratory results as given in PMC11514582, “Leveraging the Aggregated Protein Dye YAT2150 for Malaria Chemotherapy” (Pharmaceutics, 2024).
Where “and” joins values, the source holds several entries; their conditions need not be identical. Identical values can stand only once.

Legend:
Caco-2 cells = test: Influx and efflux assays in Caco-2 cells with transporter/endocytosis inhibitors; assay type: cell-based, human; details: 5 µM, FBS-free medium
Source text: The panel of influx and efflux membrane transporters expressed in Caco-2 cells has been previously characterized and, to a great extent, mimics the one described in human intestine. Based upon this information and the established knowledge of the physiology of intestinal transporters, we considered the following as possible YAT2150 influx transporters: Organic Cation Transporters (OCTs), Peptide Transporter 1 (PEPT1), and Organic Anion Transporter Polypeptide 2B1 (OATP2B1). […]
Caco-2 cells were grown in monolayer on a solid support at 37 °C in a humidified atmosphere with 5% CO2 and maintained in DMEM supplemented with 10% FBS, 2 mM L-glutamine, 1% MEM non-essential amino acids, 20 U/mL penicillin, and 20 µg/mL streptomycin (Life Technologies, Carlsbad, CA, USA). To identify YAT2150 influx and efflux mechanisms in Caco-2 cells, YAT2150 intracellular accumulation was determined by measuring its fluorescent emission at 610 nm under various experimental conditions as follows. A total of 50,000 cells/well were seeded in MW24 plates, and 24 h after seeding, YAT2150 influx and efflux were determined either in the presence or absence of FBS. […] Then, cells were washed with PBS, and intracellular YAT2150 was determined (see below). […] In parallel, emitted fluorescence was measured in an iBright Imaging System and quantified by iBright Analysis Software 5.3.0 (Thermo Fisher Scientific, Inc.). […]

[1] = cited from earlier work
[2] = cited from earlier work; remark: listed apart in the source
[3] = Cytotoxicity assay in NCI-H460 (MTT); assay type: cell-based; details: human, NCI-H460 cells, read-out: NCI-H460 inhibition (CC50)
Experimental: THP-1 human acute monocytic leukemia cells and NCI-H460 human lung carcinoma cells were grown in RPMI supplemented with 10% FBS. Hep-G2 human hepatocellular carcinoma cells were cultured in Eagle’s minimum essential medium (EMEM) supplemented with 10% FBS. A2780 human ovarian carcinoma cells were grown in RPMI supplemented with 10% FBS and 2 mM L-glutamine. MCF-7 human breast adenocarcinoma cells were cultured in EMEM containing 2 mM L-glutamine and Earle’s balanced salt solution adjusted with 1.5 g/L sodium bicarbonate, 0.1 mM non-essential amino acids, and 1 mM sodium pyruvate and supplemented with 10% FBS. […] Except for Caco-2 and HUVEC, inhibition of cell growth was evaluated using a protocol based on monitoring the transformation into formazan of the tetrazolium salt of MTT (3-(4,5-dimethylthiazol-2-yl)-2,5-diphenyltretrazolium bromide) by metabolically active cells. […] After 96 further h of incubation in the same conditions, 10 µL of a 5 mg/mL MTT solution in PBS was added to each sample, and the incubation was resumed for another 4 h. […] The absorbance measurement range was framed between one sample containing 4000 cells in plain growth medium (to determine the stable cell concentration) and another sample containing an equal cell number in growth medium supplemented with growth factors (to measure the maximum cell growth at 96 h).

CYP1A2 = target: T1, CYP1A2 (Homo sapiens, UniProt P05177); details: cited from earlier work
T1 sequence (P05177 1-516): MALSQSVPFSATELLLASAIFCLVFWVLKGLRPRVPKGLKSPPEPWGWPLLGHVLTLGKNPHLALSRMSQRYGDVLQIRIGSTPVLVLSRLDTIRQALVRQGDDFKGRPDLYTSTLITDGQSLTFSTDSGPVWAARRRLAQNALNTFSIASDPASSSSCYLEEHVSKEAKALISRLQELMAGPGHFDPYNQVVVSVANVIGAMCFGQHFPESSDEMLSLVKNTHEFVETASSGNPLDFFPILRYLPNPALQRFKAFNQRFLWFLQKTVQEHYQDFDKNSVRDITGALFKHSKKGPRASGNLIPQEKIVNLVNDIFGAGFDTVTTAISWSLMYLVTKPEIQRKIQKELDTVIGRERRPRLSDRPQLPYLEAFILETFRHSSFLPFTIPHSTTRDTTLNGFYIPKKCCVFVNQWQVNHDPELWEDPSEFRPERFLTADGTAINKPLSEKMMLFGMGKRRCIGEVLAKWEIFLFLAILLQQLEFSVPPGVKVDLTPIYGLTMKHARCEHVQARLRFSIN

[4] = system: P. falciparum asexual blood stages; details: CC50 in HUVEC / IC50 two-hour incubation in P. falciparum
Experimental: The asexual blood stages of P. falciparum parasites of the 3D7 strain (Malaria Research and Reference Reagent Resource Center, Manassas, VA, USA) were cultured in group B human RBCs at 3% hematocrit, which was kept throughout the experiments, and incubated in RPMIc. Parasites were maintained at 37 °C under an atmosphere of 5% O2, 5% CO2, and 90% N2. […] The parasites were then cultured under standard conditions for 48 h, allowing for a complete replication cycle. After the incubation period, 3 µL of culture from each well was mixed with 197 µL of PBS containing 0.1 µM Syto 11 (Thermo Fisher Scientific, Inc.) to obtain a final concentration of 1 × 10^6 to 10 × 10^6 cells/mL. Parasitemia levels were measured using an LSRFortessa flow cytometer equipped with a standard configuration of four lasers and 20 parameters. Single-cell populations were identified on a forward-side scatter plot. […] The inhibition data were then transformed using sigmoidal fitting to determine IC50.
For stage arrest assays, P. falciparum cultures were tightly synchronized in schizont stages by repeated treatment with 70% Percoll (GE Healthcare, Chicago, IL, USA) [26, 27]. […] Pictures were taken with a Nikon Eclipse 50i microscope equipped with a DS-Fi1 camera (Nikon Corporation, Tokyo, Japan).

## CCN(CC)c1ccc(/C=C/c2cc[n+](CCCCCCCCCC[n+]3ccc(/C=C/c4ccc(N(CC)CC)cc4)c(C)c3)cc2C)cc1 [YAT2150]
Caco-2 cells; with efflux inhibitors
  efflux route in Caco-2 cells: OSTα/β transporters mediated YAT2150 efflux
Caco-2 cells; with influx inhibitors
  influx route in Caco-2 cells: mainly internalized by endocytosis and also through the OATP2B1 transporter
[1]; apical to basolateral
  Transport through Caco-2 AB (Papp): 207.6 ± 11.6 ^7 nm/s
[1]
  Transport through Caco-2 Efflux ratio: 0.5 and 0.48 ± 0.03 ^7
[2]; 1 h
  Stability in human plasma (% remaining after 1 h): 100.0 ^7%
[2]; 2 h
  Stability in human plasma (% remaining after 2 h): 99.7 ^7%
[2]; 6 h
  Stability in human plasma (% remaining after 6 h): 91.3 ^7%
[3]
  CC50 at 96 h: 6.76 ± 0.27 µM
CYP1A2
  CYP1A2 inhibition (% at 10 µM): around 50%
[4]
  SI (CC50/IC50): ~66
